Reference: patent US8288552B2, “Dihydropyridone amidesas P2X7 modulators” (Roche Palo Alto LLC, priority 2008, dated 2012)

Biological target: T1, P2X7 (UniProt Q99572)
T1 sequence (Q99572 1-595): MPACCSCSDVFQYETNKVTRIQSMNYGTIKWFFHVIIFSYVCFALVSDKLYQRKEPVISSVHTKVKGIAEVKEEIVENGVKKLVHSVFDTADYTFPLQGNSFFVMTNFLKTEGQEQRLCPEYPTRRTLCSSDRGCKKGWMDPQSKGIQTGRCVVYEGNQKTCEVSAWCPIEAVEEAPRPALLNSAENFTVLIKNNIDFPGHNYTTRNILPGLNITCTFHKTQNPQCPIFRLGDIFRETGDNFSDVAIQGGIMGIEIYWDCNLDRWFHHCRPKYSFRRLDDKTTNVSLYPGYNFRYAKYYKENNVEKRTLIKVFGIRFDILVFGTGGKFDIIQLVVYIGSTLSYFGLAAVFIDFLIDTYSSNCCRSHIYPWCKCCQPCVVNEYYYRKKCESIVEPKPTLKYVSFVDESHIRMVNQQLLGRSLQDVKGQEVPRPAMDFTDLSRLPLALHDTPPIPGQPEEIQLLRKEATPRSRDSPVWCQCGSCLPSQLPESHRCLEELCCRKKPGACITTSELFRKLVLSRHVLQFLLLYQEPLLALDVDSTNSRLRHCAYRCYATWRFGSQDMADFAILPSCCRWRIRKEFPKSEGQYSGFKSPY
Experiment: P2X7 pKi of Table 1
Format: cell-based
Method: Intracellular Calcium Flux (FLIPR) Assay
Compound and Reagent Preparation
Stock solutions of compounds were prepared from powders as a 10 mM DMSO stock solution. These solutions were stored at RT during the two week period of these experiments to prevent freeze-thaw of the DMSO stocks. The DMSO stocks were added to the appropriate assay buffer at a concentration of 10 μM, and then diluted serially to the final concentrations that were tested. […] The aqueous solutions of compounds as well as ATP (Sigma A7699) and BzATP (Sigma B6396) were prepared fresh for each day of experiment.
1321N1 cells stably expressing the full length human P2X7 gene (1321N1-hP2X7) and HEK293 cells stably expressing the full length rat P2X7 gene (HEK293-rP2X7) were obtained from the Roche Cell Culture Facility. 1321N1-hP2X7 cells were grown in Dulbecco's Modified Eagle's Medium (DMEM) high glucose supplemented with 10% FBS and 250 μg/mL G418. HEK293-rP2X7 cells were grown in DMEM/F-12 supplemented with 10% FBS, 1 mM CaCl2, 2 mM MgCl2, 2 mM L-Glutamine and 500 μg/ml G418. Cells were split such that they never became >70% confluent.
Intracellular Calcium Flux (FLIPR)
On the day prior to the experiment, 1321N1-hP2X7 or HEK293-rP2X7 cells were released into suspension with calcium-free PBS+Versene and washed by centrifugation with calcium-free PBS to remove the Versene. Cells were resuspended in growth medium at a density of 2.5×10^5 cells/mL and seeded into black walled, clear bottom 96 well plates (50,000 cells/well) approximately 18 hr prior to intracellular calcium flux experiments.
On the day of the experiment, plates were washed with FLIPR buffer (calcium- and magnesium-free Hank's Balanced Salt Solution (HBSS) supplemented with 10 mM Hepes, 2.5 mM probenecid and 2 mM calcium chloride) using a BIO-TEK 96 channel plate washer and incubated with […] fluo-3 dye at 37° C. for one hr. The dye was then removed by plate washing and the cells were allowed to equilibrate for 20 min at room temperature with antagonist or vehicle (FLIPR buffer). Agonist (100 μM BzATP final concentration for hP2X7; 5 μM BzATP final concentration or rP2X7) was added online with the FLIPR and fluorescence measurements made at 1 sec intervals for 60 sec followed by 3 sec intervals for a further 4 min (5 min total). A final addition of 5 μM ionomycin was made and the maximal BzATP-evoked fluorescence normalized to the maximal ionomycin-evoked fluorescence.

SMILES	pKi
Cc1cccc(NC(=O)C2=CNC(=O)C[C@H]2c2ccc(F)cc2)c1C [Compound 58, (S)-4-(4-Fluoro-phenyl)-6-oxo-1,4,5,6-tetrahydro-pyridine-3-carboxylic acid (2,3-dimethyl-phenyl)-amide]	6.785
Cc1cc(Cl)c(OCCO)cc1NC(=O)C1=CNC(=O)CC1c1ccc(F)cc1 (stereo not drawn) [Compound 61, 4-(4-Fluoro-phenyl)-6-oxo-1,4,5,6-tetrahydro-pyridine-3-carboxylic acid [4-chloro-5-(2-hydroxy-ethoxy)-2-methyl-phenyl]-amide]	7.755
Cc1cc(Cl)c(OCCO)cc1NC(=O)C1=CNC(=O)CC1c1cccc(F)c1 (stereo not drawn) [Compound 62, 4-(3-Fluoro-phenyl)-6-oxo-1,4,5,6-tetrahydro-pyridine-3-carboxylic acid [4-chloro-5-(2-hydroxy-ethoxy)-2-methyl-phenyl]-amide]	7.595
Cc1ccc(S(N)(=O)=O)cc1NC(=O)C1=CNC(=O)CC1c1ccc(F)cc1 (stereo not drawn) [Compound 67, 4-(4-Fluoro-phenyl)-6-oxo-1,4,5,6-tetrahydro-pyridine-3-carboxylic acid(2-methyl-5-sulfamoyl-phenyl)-amide]	5.515
Cc1ccc(C(C)C)cc1NC(=O)C1=CNC(=O)C[C@H]1c1cccc(F)c1 [Compound 69, (S)-4-(3-Fluoro-phenyl)-6-oxo-1,4,5,6-tetrahydro-pyridine-3-carboxylic acid(5-isopropyl-2-methyl-phenyl)-amide]	7.01
CCOc1cc(NC(=O)C2=CNC(=O)CC2c2cccc(F)c2)c(C)cc1Cl (stereo not drawn) [Compound 70, 4-(3-Fluoro-phenyl)-6-oxo-1,4,5,6-tetrahydro-pyridine-3-carboxylic acid(4-chloro-5-ethoxy-2-methyl-phenyl)-amide]	7.425
Cc1cc(Cl)c(OCCO)cc1NC(=O)C1=CNC(=O)C[C@@H]1c1cccc(F)c1 [Compound 71, (R)-4-(3-Fluoro-phenyl)-6-oxo-1,4,5,6-tetrahydro-pyridine-3-carboxylic acid[4-chloro-5-(2-hydroxy-ethoxy)-2-methyl-phenyl]-amide]	6.815
O=C1C[C@@H](c2ccc(F)cc2)C(C(=O)Nc2cc(OCCO)c(Cl)cc2Br)=CN1 [Compound 76, (S)-4-(4-Fluoro-phenyl)-6-oxo-1,4,5,6-tetrahydro-pyridine-3-carboxylic acid[2-bromo-4-chloro-5-(2-hydroxy-ethoxy)-phenyl]-amide]	7.063
O=C1C[C@@H](c2cccc(F)c2)C(C(=O)Nc2cc(OCCO)c(Cl)cc2Br)=CN1 [Compound 78, (S)-4-(3-Fluoro-phenyl)-6-oxo-1,4,5,6-tetrahydro-pyridine-3-carboxylic acid[2-bromo-4-chloro-5-(2-hydroxy-ethoxy)-phenyl]-amide]	7.695
Cc1ccc(C(C)O)cc1NC(=O)C1=CNC(=O)C[C@H]1c1ccc(F)cc1 (stereo partly drawn) [Compound 80, (S)-4-(4-Fluoro-phenyl)-6-oxo-1,4,5,6-tetrahydro-pyridine-3-carboxylic acid[5-(1-hydroxy-ethyl)-2-methyl-phenyl]-amide]	7.59
Cc1cc(Cl)c(OCC(O)CO)cc1NC(=O)C1=CNC(=O)C[C@H]1c1cccc(F)c1 (stereo partly drawn) [Compound 81, (S)-4-(3-Fluoro-phenyl)-6-oxo-1,4,5,6-tetrahydro-pyridine-3-carboxylic acid[4-chloro-5-(2,3-dihydroxy-propoxy)-2-methyl-phenyl]-amide]	5.76

Second part, the compound after the results:

pKi	SMILES
7.57	Cc1cc(C)c(Br)c(NC(=O)C2=CNC(=O)C[C@@H]2c2ccc(F)cc2)c1 [Compound 59, (R)-4-(4-Fluoro-phenyl)-6-oxo-1,4,5,6-tetrahydro-pyridine-3-carboxylic acid(2-bromo-3,5-dimethyl-phenyl)-amide]
6.86	Cc1cc(C)c(Br)c(NC(=O)C2=CNC(=O)C[C@H]2c2ccc(F)cc2)c1 [Compound 60, (S)-4-(4-Fluoro-phenyl)-6-oxo-1,4,5,6-tetrahydro-pyridine-3-carboxylic acid(2-bromo-3,5-dimethyl-phenyl)-amide]
7.405	Cc1cccc(NC(=O)C2=CNC(=O)CC2c2cccc(F)c2)c1C (stereo not drawn) [Compound 63, 4-(3-Fluoro-phenyl)-6-oxo-1,4,5,6-tetrahydro-pyridine-3-carboxylic acid(2,3-dimethyl-phenyl)-amide]
8.17	COc1cc(NC(=O)C2=CNC(=O)CC2c2cccc(F)c2)c(C)cc1F (stereo not drawn) [Compound 64, 4-(3-Fluoro-phenyl)-6-oxo-1,4,5,6-tetrahydro-pyridine-3-carboxylic acid(4-fluoro-5-methoxy-2-methyl-phenyl)-amide]
6.7	O=C1CC(c2ccc(F)cc2)C(C(=O)Nc2cc(OCCO)c(Cl)cc2Br)=CN1 (stereo not drawn) [Compound 65, 4-(4-Fluoro-phenyl)-6-oxo-1,4,5,6-tetrahydro-pyridine-3-carboxylic acid[2-bromo-4-chloro-5-(2-hydroxy-ethoxy)-phenyl]-amide]
6.915	O=C1CC(c2cccc(F)c2)C(C(=O)Nc2cccc3c2CCC3)=CN1 (stereo not drawn) [Compound 66, 4-(3-Fluoro-phenyl)-6-oxo-1,4,5,6-tetrahydro-pyridine-3-carboxylic acid indan-4-ylamide]
7.8375	Cc1cc(Cl)c(OCCO)cc1NC(=O)C1=CNC(=O)C[C@H]1c1cccc(F)c1 [Compound 72, (S)-4-(3-Fluoro-phenyl)-6-oxo-1,4,5,6-tetrahydro-pyridine-3-carboxylic acid[4-chloro-5-(2-hydroxy-ethoxy)-2-methyl-phenyl]-amide]
7.63	Cc1cc(Cl)c(OCCO)cc1NC(=O)C1=CNC(=O)C[C@H]1c1ccc(F)cc1 [Compound 73, (S)-4-(4-Fluoro-phenyl)-6-oxo-1,4,5,6-tetrahydro-pyridine-3-carboxylic acid[4-chloro-5-(2-hydroxy-ethoxy)-2-methyl-phenyl]-amide]
6.63	Cc1cc(Cl)c(OCCO)cc1NC(=O)C1=CNC(=O)C[C@@H]1c1ccc(F)cc1 [Compound 74, (R)-4-(4-Fluoro-phenyl)-6-oxo-1,4,5,6-tetrahydro-pyridine-3-carboxylic acid[4-chloro-5-(2-hydroxy-ethoxy)-2-methyl-phenyl]-amide]
6.245	O=C1C[C@H](c2ccc(F)cc2)C(C(=O)Nc2cc(OCCO)c(Cl)cc2Br)=CN1 [Compound 75, (R)-4-(4-Fluoro-phenyl)-6-oxo-1,4,5,6-tetrahydro-pyridine-3-carboxylic acid[2-bromo-4-chloro-5-(2-hydroxy-ethoxy)-phenyl]-amide]
7.375	Cc1cc(Cl)c(OCC(C)O)cc1NC(=O)C1=CNC(=O)CC1c1cccc(F)c1 (stereo not drawn) [Compound 77, 4-(3-Fluoro-phenyl)-6-oxo-1,4,5,6-tetrahydro-pyridine-3-carboxylic acid[4-chloro-5-(2-hydroxy-propoxy)-2-methyl-phenyl]-amide]
7.42	COc1cc(C)c(NC(=O)C2=CN(CCO)C(=O)CC2c2ccc(F)cc2)cc1OC (stereo not drawn) [Compound 79, 4-(4-Fluoro-phenyl)-1-(2-hydroxy-ethyl)-6-oxo-1,4,5,6-tetrahydro-pyridine-3-carboxylic acid(4,5-dimethoxy-2-methyl-phenyl)-amide]
7.975	COc1cc(NC(=O)C2=CNC(=O)C[C@H]2c2cccc(F)c2)c(C)cc1F [Compound 82, (S)-4-(3-Fluoro-phenyl)-6-oxo-1,4,5,6-tetrahydro-pyridine-3-carboxylic acid(4-fluoro-5-methoxy-2-methyl-phenyl)-amide]
